Measured values reported in US20230227406A1, “MODULATORS OF E3 LIGASES” (Rekindle Therapeutics Inc., priority 2020, published 2023).

Assays:
SARS-CoV-2 = assay type: cell-based; settings: Vero cells, 36 hours
DU-145 cells = experiment: Cellular proliferation assay (MTS) in DU-145 cells; assay type: cell-based; settings: Homo sapiens, 72 hours of incubation, read-out: IC50 values for selected compounds in DU-145 cells
Experimental: DU-145 cells were trypsinized, counted via Trypan blue method and resuspended in DMEM complete medium (10% FBS with Pen-strep antibiotics) as described in Lieu et al, Mol Cel Endorinol, 87:19-28, 1992. Cells were seeded at a density of 100 cells per well in 1001 volume of 96-well cell culture plate and were incubated overnight at 37° C. in 5% CO2 incubator. The next day, cells were given fresh media and the test compounds were added in different concentrations. After 72 hours of incubation, MTS reagent (procured from Promega) was added to the cells and they were incubated for an additional 2 hours. Finally, the plates read in the absorbance mode at 490 nm using an ELISA plate reader (Perkin Elmer Victor X3 plate reader). The % growth values were calculated as [(T−T0)/(C−T0)]×100, where T0 is the OD of cells at the time of compound addition, C is the vehicle control, T is the OD of the test concentrations at 72 hours. Percentage inhibition values were calculated using 100−([(T−T0)/(C−T0)]×100). IC50 values were calculated in graph pad prism software using dose response curve nonlinear regression method.

WWP1 [1] = target: T1, WWP1 (Homo sapiens, UniProt Q9H0M0); experiment: WWP1 MALDI-MS ubiquitin depletion assay (auto-ubiquitination); assay type: biochemical; settings: 30 min pre-incubation, 90 minutes at 37° C.
T1 construct: purchased Ubiquigent 63-0034-025/30033/D
T1 sequence (Q9H0M0 whole entry): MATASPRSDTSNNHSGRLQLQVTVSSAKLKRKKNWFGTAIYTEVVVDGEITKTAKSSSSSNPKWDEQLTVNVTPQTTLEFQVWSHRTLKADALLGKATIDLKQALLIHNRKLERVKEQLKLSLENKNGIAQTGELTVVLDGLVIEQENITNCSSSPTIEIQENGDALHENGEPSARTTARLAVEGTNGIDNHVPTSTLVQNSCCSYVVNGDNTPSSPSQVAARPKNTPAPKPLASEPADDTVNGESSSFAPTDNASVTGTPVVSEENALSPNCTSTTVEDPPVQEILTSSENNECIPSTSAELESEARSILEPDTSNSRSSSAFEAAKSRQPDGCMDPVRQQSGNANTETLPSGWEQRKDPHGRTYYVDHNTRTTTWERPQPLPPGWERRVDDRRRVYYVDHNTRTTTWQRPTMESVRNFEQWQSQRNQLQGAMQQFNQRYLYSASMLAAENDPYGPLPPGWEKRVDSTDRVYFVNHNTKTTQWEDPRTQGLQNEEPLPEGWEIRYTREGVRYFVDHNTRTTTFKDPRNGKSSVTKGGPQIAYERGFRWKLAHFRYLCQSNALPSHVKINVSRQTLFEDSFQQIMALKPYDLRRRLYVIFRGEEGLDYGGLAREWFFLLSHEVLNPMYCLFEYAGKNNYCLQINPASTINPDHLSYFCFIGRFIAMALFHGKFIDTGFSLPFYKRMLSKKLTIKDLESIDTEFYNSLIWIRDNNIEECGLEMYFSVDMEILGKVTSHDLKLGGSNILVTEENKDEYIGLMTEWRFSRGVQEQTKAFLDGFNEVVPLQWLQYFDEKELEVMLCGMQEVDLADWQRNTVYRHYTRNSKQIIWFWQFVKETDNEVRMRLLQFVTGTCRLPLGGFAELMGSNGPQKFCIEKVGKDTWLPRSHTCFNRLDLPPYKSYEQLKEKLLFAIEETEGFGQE
Experimental: Modulators designed in these ways were tested for HECT domain E3 ligase activity in a MALDI TOF assay of auto-ubiquitination (De Cesare et al, Cell Chem. Biol, 2018, 25, 1117)
UBE1 (E-305 Boston Biochem), UBE2D1 (E2-616 Boston Biochem), WWP1 (Ubiquigent #63-0034-025/30033/D), ubiquitin variants (Boston Biochem; ubiquitin: U-100H; WT-His6-Ub: U-530; K27R-His6-Ub:UM-HK27R; K27O-His6-Ub: UM-HK27O), alpha-cyano-4-hydroxycinnamic acid (CHCA), ATP, trifluoroacetic acid (Millipore Sigma, St. Louis, Mo.), 384-well round-bottom polypropylene microplates (781280, Greiner, Stonehouse, UK), 384-well Anchorchip MALDI targets and Peptide Calibration Standard II (Bruker Daltonics, Billerica, Mass.).
Protocol: The WWP1 ubiquitin depletion assay consists of recombinant UBE1 (5 nM), UBE2D1 conjugating enzyme (60 nM) and WWP1 ligase (50 nM) in a 10 mM HEPES pH 8.0 containing 0.1 mg/mL BSA, 10 mM MgCl2, 1 mM ATP and 1500 nM ubiquitin. Screening was performed by dispensing 3.5 μL of an enzyme solution containing UBE1 (10 nM), UBE2D1 (120 nM), WWP1 (100 nM), ubiquitin ([…]) to a 384-well round bottom polypropylene plates followed by incubation at 37° C. for 30 min. Reactions were initiated by the addition of 3.5 μL of an ATP solution (2000 nM) then incubated at 37° C. for 90 minutes before being quenched by the addition of 5 μL of a 50 mM EDTA solution containing 750 nM of a ubiquitin labelled with a histidine expression tag (m/z=9460.0 Da).
For detection of ubiquitin and the ubiquitin-6His internal standards, 50 nL of quenched reaction was dispensed onto a 384-well Anchorchip MALDI target plate (Bruker) pre-coated with a uniform layer of CHCA crystals immediately followed by 200 nL of a 3 mg/mL CHCA matrix solution (6 mg of CHCA dissolved in 0.7 mL of 100% ethanol and 1.3 mL of 0.31% aqueous TFA) using a TTP Labtech Mosquito liquid handler. Spectra for all reactions were acquired on a Bruker AutoFlex II in positive linear TOF mode from 1000 laser shots with ion suppression below 4000 Da. Spectra were analyzed for response using a centroid peak-fitting algorithm to quantify ubiquitin (m/z=8564.0 Da) and ubiquitin-6His (m/z=9460.0 Da) followed taking the ratio of intensities of ubiquitin and the ubiquitin-6His internal standard.
For compound screening, 140 nL of diluted compound in 100% DMSO was added to the WWP1 enzyme solution and pre-incubated for 30 minutes prior to reaction initiation.

PD-L1 [2] = experiment: Western blot of PD-L1 in Hs578T cells; assay type: cell-based, human; settings: 48 hours, indicated concentrations of compound
Experimental: Hs578T cells (human triple negative breast cancer) were treated with the indicated concentration of COMPOUND 1 for 48 hours prior to harvesting. The “0” concentration is DMSO only (0.5%, same as was used for compound doses). […] Analysis occurred via western blot using the indicated antibodies. Quantification by densitometry of the bands from the western blot are presented for PD-L1/Vinculin (loading control) in the absence of interferon gamma, and glycosylated/non-glycosylated PD-L1 in the presence of interferon gamma.
(§1) The data presented here are consistent with the previous replicate in Hs578T cells, and the observation is preserved in another TNBC cell line, BT-20. COMPOUND 1 increases PD-L1 levels and the glycosylated PD-L1/non-glycosylated PD-L1 ratio. Methods are the same as the previous replicate, using the indicated doses.
Hs578T cells (human triple negative breast cancer) were treated with the indicated concentration of COMPOUND 6 for 48 hours before harvesting. The “0” concentration is DMSO only (0.5%, same as was used for compound doses). […] Analysis occurred via western blot using the indicated antibodies. PD-L1 protein levels were reduced relative to the vinculin loading control upon compound treatment. This effect is observed in the presence and absence of interferon gamma (IFN, 25 ng/mL in cell culture media during the drug treatment).
Hs578T cells (human triple negative breast cancer) were treated with the indicated concentration of COMPOUND 7 for 48 hours prior to harvesting. The “0” concentration is DMSO only (0.5%, same as was used for compound doses). […] Analysis occurred via western blot using the indicated antibodies. PD-L1 protein levels were reduced relative to the vinculin loading control upon 319-02 treatment.
The data presented here are consistent with the previous replicate in Hs578T cells. COMPOUND 7 reduces the PD-L1/vinculin loading control ratio. Methods are the same as the previous replicate, using the indicated doses.
(§2) Hs578T cells (human triple negative breast cancer) were treated with the indicated concentration of COMPOUND 8 for 48 hours and then harvested. The “0” concentration is DMSO only (0.5%, same as was used for compound doses). […] Analysis occurred via western blot using the indicated antibodies.
PD-L1-APC (BD Biosciences) and a matched isotype control were used to visualize PD-L1 cell surface expression by flow cytometry (1:250 dilution). As shown by western blot, the knockdown of WWP1 yielded increased PD-L1 protein levels, including an increase in the glycosylated band.
Total RNA was isolated using an RNeasy kit from Qiagen.

[3] = test system: phosphorylated AKT and phosphorylated Ribosomal Protein S6; experiment: Western blot of AKT and S6 phosphorylation in Hs578T cells; assay type: cell-based, human; settings: 48 hours, indicated concentrations
Experimental: Hs578T cells (human triple negative breast cancer) were treated with the indicated concentration of COMPOUND 1 for 48 hours prior to harvesting. The “0” concentration is DMSO only (0.5%, same as was used for compound doses). […] Analysis occurred via western blot using the indicated antibodies. Quantification by densitometry of the bands from the western blot are presented for phosphorylated AKT/Total AKT and phosphorylated Ribosomal Protein S6/Total Ribosomal Protein S6. COMPOUND 1 reduced both AKT and S6 phosphorylation relative to their respective total protein levels.
as §1, with “reduces the phospho-AKT/vinculin loading control” for “increases PD-L1 levels”, “phospho-S6/total S6 ratios.” for “the glycosylated PD-L1/non-glycosylated PD-L1 ratio.”
Hs578T cells (human triple negative breast cancer) were treated with the indicated concentration of COMPOUND 6 for 48 hours prior to harvesting. The “0” concentration is DMSO only (0.5%, same as was used for compound doses). […] Analysis occurred via western blot using the indicated antibodies.
The data presented here are consistent with the previous replicate in Hs578T cells. COMPOUND 6 reduces the phospho-AKT/vinculin loading control and phospho-S6/total S6 ratios. Methods are the same as the previous replicate, using the indicated doses.
Hs578T cells (human triple negative breast cancer) were treated with the indicated concentration of COMPOUND 7 for 48 hours before harvesting. The “0” concentration is DMSO only (0.5%, same as was used for compound doses). […] Analysis occurred via western blot using the indicated antibodies.
The data presented here are consistent with the previous replicate in Hs578T cells. COMPOUND 7 reduces the phospho-S6/vinculin loading control ratio. Methods are the same as the previous replicate, using the indicated doses.
as §2

WWP1 mRNA = experiment: qPCR of WWP1 mRNA in Du145 shRNA cell lines; settings: vs empty vector control lines
Protocol: All shRNA constructs were introduced through lentiviral infection under puromycin selection. Cells were cultured for 48 hours in the presence or absence of interferon gamma (25 ng/mL in the cell culture media) at which time a fraction of cells was split for protein and mRNA evaluation. For protein, cells were lysed in RIPA buffer containing protease inhibitors on ice. Total RNA was isolated using the RNeasy kit from Qiagen, prior to reverse transcription to obtain cDNA.

PD-L1 [4] = experiment: Western blot of PD-L1 in multiple cancer cell lines after siRNA, shRNA or interferon gamma; assay type: cell-based, human; settings: 25 ng/mL, 48 hours
Description: Relative to the vinculin loading control, interferon gamma upregulates PD-L1 protein levels within TNBCs shown to express PD-L1 at baseline.
Analysis occurred via western blot using the indicated antibodies.

WWP1 [5] = experiment: Western blot of WWP1 protein levels after siRNA, shRNA, ASO or interferon gamma; settings: A549 and Hs578T cells, 25 ng/mL, 48 hours
Protocol: Cells were treated with 10 nM pooled siRNA (IDT) and harvested 48 hours after. Cells were lysed in RIPA buffer containing protease and phosphatase inhibitors on ice.
Prior to harvesting, A549 and Hs578T cells were cultured for 48 hours in the presence or absence of interferon gamma (25 ng/mL in the cell culture media) or 10 nM pooled siRNA (IDT). Cells were lysed in RIPA buffer containing protease inhibitors on ice. Lysates were analyzed by western blot using the indicated antibodies.
Hs578T, BT-20 and A549 cells were cultured for 48 hours in the presence or absence of interferon gamma (25 ng/mL in the cell culture media), presence of absence of 10 nM pooled siRNA (IDT), or both. […] Lysates were analyzed by western blot using the indicated antibodies. […]
Cells were treated with 10 nM pooled siRNA for the indicated gene (IDT) and harvested 48 hours after (split for protein and RNA analysis). […] Lysates were analyzed by western blot using the indicated antibodies.
Cells were treated with 10 nM pooled siRNA for the indicated gene (IDT) and harvested after 48 hours. […] Lysates were analyzed by western blot using the indicated antibodies.
RNAiMax Lipofectamine (Thermo) was used as the transfection reagent at the manufacturer's recommended concentration. […] Western blots were used to quantify protein levels, using antibodies against Vinculin and WWP1.

Molecule | IC50 (DU-145 cells) [µM] | IC50 (WWP1 [1]) [µM] | other results
OCc1c[nH]c2ccccc12 [Compound I3C, Indole-3-carbinol] | – | – | impact on SARS-CoV-2 infection (SARS-CoV-2; 2.5 μM): little impact on infection; inhibition of SARS-CoV-2 infection (SARS-CoV-2; 5 μM): > 75%
O=C(O)c1ccc2c(Cc3c[nH]c4ccccc34)c[nH]c2c1 [Compound 4, 3-((1H-indol-3-yl)methyl)-1H-indole-6-carboxylic acid] | 0.08 | 29 | –
O=C(O)c1ccc2[nH]cc(Cc3c[nH]c4ccccc34)c2c1 [Compound 3, 3-((1H-indol-3-yl)methyl)-1H-indole-5-carboxylic acid] | – | ~300 | –
C#CCNC(=O)c1ccc2c(Cc3c[nH]c4ccccc34)c(C)[nH]c2c1 [Compound 5, 3-((1H-indol-3-yl)methyl)-2-methyl-N-(prop-2-yn-1-yl)-1H-indole-6-carboxamide] | 5.48 | 45 | –
N#Cc1cc(NC(=O)c2ccc3c(c2)c(C=O)cn3-c2ccccc2)ccn1 [Compound 2, N-(2-cyanopyridin-4-yl)-3-formyl-1-phenyl-1H-indole-5-carboxamide] | – | 26 | –
Fc1cccc2[nH]cc(Cc3c[nH]c4cccc(F)c34)c12 [Compound 8, bis(4-fluoro-1H-indol-3-yl)methane] | 12 | 49 | PD-L1 levels (relative to vinculin loading control) (PD-L1 [2]): reduced; S6 phosphorylation (relative to total S6 or vinculin loading control) [3]: reduced
Fc1ccc2[nH]cc(Cc3c[nH]c4ccc(F)cc34)c2c1 [Compound 9, bis(5-fluoro-1H-indol-3-yl)methane] | – | 66 | –
interferon gamma: interferon gamma, a stimulator of PD-L1 expression | – | – | KD (reduction) of WWP1 mRNA by qPCR (WWP1 mRNA): 15%; induced PD-L1 expression (PD-L1 [4]; MCF-7 cells (ER+)): not readily observable; PD-L1 protein levels relative to vinculin (PD-L1 [4]; TNBCs (Hs578T, BT-20)): upregulates; WWP1 levels (WWP1 [5]): reduced
